From patent US20040079671A1, “Medicinal product packaging” (priority 2002, published 2004)

Experiment: Accelerated stability at 56° C. of chlorobutanol and paraben test solution in untreated and fluorinated polypropylene bottles (HPLC concentration)
Format: physicochemical
Procedure: Polypropylene bottles (dropper-type) were obtained from Owens-Brockway, Ill. (capacity 5 ml). Some of the bottles were sent to a company called Fluoro-Seal (Columbus, Ohio) where they were treated for fluorine-coating under a proprietary method. After the bottles were ‘fluorosealed’ (done at ‘level 5’) they were washed in dilute soap solution rinsed several times in de-ionized water and dried before use. The bottles were then filled with 3 ml of a chlorobutanol and paraben test solution (Table 4). Control samples of untreated polypropylene bottles filled with the same solution were also prepared. All samples were prepared in duplicate and put up on accelerated stability at 56° C. Before putting on stability, ‘0’ time-point samples from all bottles were collected and the bottles were weighed. Concentration of cholorobutanol and methyl- and propyl parabens was determined by an HPLC method. Samples were taken at 1 wk, 2 wk and 4 wks by expelling ˜50-100 mcg droplets into tared vials. Bottles were weighed before and after sampling, before returning to condition. The following terms are used in Table 4, below. PP means polypropylene (untreated). PP-FL or PP-FL5 means fluorinated polypropylene at service provider's specified level of ‘5’. LDPE is low density polyethylene (untreated). LDPE-FL5 means low density polyethylene fluorinated at service provider's specified level of ‘5’. Duplicate samples were measured.

## CCCOC(=O)c1ccc(O)cc1 [PROPYLPARABEN, propylparaben]
Bottle FL-5P P-2 (fluorinated polypropylene, level 5), time of storage 0 weeks
  Conc. of propylparaben: 102 µg/mL
Bottle FL-5P P-2 (fluorinated polypropylene, level 5), time of storage 1 week
  Conc. of propylparaben: 95.3 µg/mL
Bottle FL-5P P-2 (fluorinated polypropylene, level 5), time of storage 2 weeks
  Conc. of propylparaben: 96.6 µg/mL
Bottle FL-5P P-2 (fluorinated polypropylene, level 5), time of storage 4 weeks
  Conc. of propylparaben: 94.6 µg/mL
Bottle FL-5 PP-1 (fluorinated polypropylene, level 5), time of storage 0 weeks
  Conc. of propylparaben: 104 µg/mL
Bottle FL-5 PP-1 (fluorinated polypropylene, level 5), time of storage 1 week
  Conc. of propylparaben: 95.3 µg/mL
Bottle FL-5 PP-1 (fluorinated polypropylene, level 5), time of storage 2 weeks
  Conc. of propylparaben: 96.6 µg/mL
Bottle FL-5 PP-1 (fluorinated polypropylene, level 5), time of storage 4 weeks
  Conc. of propylparaben: 89.3 µg/mL
Bottle PP-1 (untreated polypropylene), time of storage 0 weeks
  Conc. of propylparaben: 103 µg/mL
Bottle PP-1 (untreated polypropylene), time of storage 1 week
  Conc. of propylparaben: 86.2 µg/mL
Bottle PP-1 (untreated polypropylene), time of storage 2 weeks
  Conc. of propylparaben: 82.5 µg/mL
Bottle PP-1 (untreated polypropylene), time of storage 4 weeks
  Conc. of propylparaben: 69.5 µg/mL
Bottle PP-2 (untreated polypropylene), time of storage 0 weeks
  Conc. of propylparaben: 103 µg/mL
Bottle PP-2 (untreated polypropylene), time of storage 1 week
  Conc. of propylparaben: 86.9 µg/mL
Bottle PP-2 (untreated polypropylene), time of storage 2 weeks
  Conc. of propylparaben: 77.8 µg/mL
Bottle PP-2 (untreated polypropylene), time of storage 4 weeks
  Conc. of propylparaben: 65.1 µg/mL
